According to US20180354909A1, “SUBSTITUTED BENZIMIDAZOLIUM, PYRIDO-IMIDAZOLIUM, OR PYRAZINO-IMIDAZOLIUM COMPOUNDS AS CHEMOTHERAPEUTICS” (The Board of Regents of the University of Texas System, priority 2015, published 2018):
“Also recorded” adds a separate entry of the source.

What was measured:
Phospho-S6 = test: p-S6 western blot in Mut6 cells; assay type: cell-based, mouse
Description: Mut6 tumor cells and MEFs were treated by DMSO or 1 μM 12M11 for the indicated times. Cell lysate was prepared by RIPA buffer with phosphatase inhibitor (Thermo) and protease inhibitor (Roche). Antibodies are purchased from Santa Cruz (ATF4), Cell Signaling (pS6, S6, AMPK, and pAMPK), and Millipore (Gapdh).

[1] = system: mitochondrial membrane potential; test: TMRE mitochondrial membrane potential staining in Mut6 cells; assay type: cell-based, mouse; conditions: within 30 min
Description: TMRE mitochondrial membrane potential assay kit was purchased from Abcam (113852) and the assay was performed according to the manufacturer's protocol. Briefly, cells were pre-incubated with 1 μM 12M11 (10 min or 18 hrs) or 100 nM FCCP (10 min) and incubated for additional 20 min with 200 nM TMRE before pictures were taken.

astrocytes = test: Cytotox testing (CellTiter-Glo) in astrocytes; assay type: cell-based
Description: (§1) Mut6 tumor cells were cultured in DMEM/F12 media supplemented by EGF (10 ng/mL), basic FGF (10 ng/mL), heparin (4 ug/mL), glucose (total 21 mM), NaHCO3 (113 μg/mL), Hepes (119 μg/mL), glutamine (2 mM), sodium pyruvate (1 mM), N2 supplement (ThermoFisher Gibco 17502-048, 100×, at 100-fold dilution), B27 supplement (ThermoFisher Gibco 12587-010, 50×, at 100-fold dilution), and penicillin/streptomycin (ThermoFisher, final 1%). Cells were maintained in Ultra-low attachment plate (Corning) as sphere-forming cells. For ATP assays and protein/RNA isolation, cells were plated into 96-well plates or 6-well plated that were coated with poly-lysine (Sigma P6407, 10 μg/mL in PBS, 4 hr at 37° C.) and laminin (ThermoFisher 23017015, ˜5 mg/L in PBS, overnight at 37° C.). MEFs and Astrocytes were cultured in DMEM supplemented with 10% FBS and 1% Penicillin/Streptomycin.
(§2) 2,000 cells were plated into each well of 96-well plates. About 3 hours later, cells were treated by 12M11, at 800-fold dilution (4 mM stock was diluted into 5 μM final concentration). Cells were further incubated for 4 days. CellTiter-Glo assay (Promega) was performed according to manufacturer's instructions, by adding 20 μL of reagent into each well. Luminescence signal was detected by the PolarStar plate reader (BMG Labtech). Experiments were performed in quadruplicate, and results are presented with mean average −/+ standard deviation. EC505 were calculated by GraphPad Prism6 software.

[2] = In vitro plasma half-life; assay type: in vitro ADME; conditions: mouse, plasma, murine plasma, read-out: Plasma T1/2 (converted)
Description: 12M11 (2 μM final concentration) was incubated with murine plasma and saline for 0-1440 minutes. Reactions were quenched with 200 μl (1:2) of methanol containing 0.1% formic acid and 200 ng/ml IS (IS final conc.=100 ng/mL). Samples were vortexed for 15 seconds, incubated at RT for 10 minutes and spun for 5 minutes at 13.2K rpm. Supernatant ([…]) was then transferred to an eppendorf tube and spun in a table top, chilled centrifuge for 5 minutes at 13.2K rpm. Supernatant (800 μL) was transferred to an HPLC vial (w/out insert). Analyzed by Qtrap 3200 mass spectrometer. These methods were used data obtained in the FIGS. 22C and 22F.

Hepatocyte half-life = assay type: in vitro ADME; conditions: hepatocytes; in vitro; read-out: hepatocyte T1/2
MEF = test: Cytotox testing (CellTiter-Glo) in MEF; assay type: cell-based, mouse
Description: as §1
as §2, with “Experiments were performed in quadruplicate, and results are presented with mean average −/+ standard deviation.” left out

[3] = system: oxidative phosphorylation complexes I-V; test: Avidin agarose pull-down of Biotin-12M11 interacting proteins from Mut6 cells; assay type: binding, mouse; conditions: Mut6 cell lysates
Description: To understand the unique selectivity of 12M11 to affect the viability of Mut6 cells, the precise molecular target(s) of 12M11 were determined. A 12M11 biotinylated variant (see Cpd 1.11, FIG. 16C) was generated to attempt to directly pull down interacting proteins. […] Mut6 cells were treated with 12M11, Biot-12M11, or pre-incubated with 12M11 followed by addition of Biot-12M11 (see FIG. 17 for a general schematic protocol). As indicated in the silver stain of a denaturing gel (FIG. 18A) with the pull down reactions, several bands that appear in the Biot-12M11 tract (Lane 2) are substantially diluted or absent in Lane 3 where the cells were pre-incubated with excess 12M11. […] The results from Mass-Spec analysis were as follows: 1) Lysate from Mut6 cells incubated with 12M11 alone yielded no proteins; 2) Lysate from Mut6 cells incubated with Biot-12M11 yielded 8 proteins (Atp5a1, Acaca, Hspa9, Hsp60, Decr1, Sdha, Pcca, and Atp5o; FIG. 19B). Two of the proteins, Acac and Pcca, were discounted as known to nonspecifically bind Biotin (Tong, 2005; Diacovich, et al., 2004; Kalousek, et al., 1980). The remaining 6 proteins all localize to the mitochondrion and 3 of the pulled down proteins are components of the oxidative phosphorylation complexes. […]

[4] = system: DAOY (medulloblastoma) cells; test: CellTiter-Glo cell viability in DAOY cells; assay type: cell-based
Description: The activity of compound 12M11 was tested against a variety of cancer cell lines (see FIG. 2A), including those are routinely used in the literature such as HeLa, DAOY, MCF7, 435 and HCC38 cells. […] Just as for MEF cells, without wishing to be bound by any theory, it is believed that the resistance of DAOY cells to the OxyPhos inhibitor 12M11 can be attributed to their higher ATP levels per cell (FIG. 13B) combined with lower intrinsic OxyPhos activity as assessed by TMRE staining (FIG. 13C).

- half-life at 2 μM [2]: 4 min
- half-life (Hepatocyte half-life): 257 min
Compound: CCc1n(CC(=O)O[C@@H]2C[C@H](C)CC[C@H]2C(C)C)c2ccccc2[n+]1C.[Cl-] [Compound 12M11]
- Phospho-S6 protein level (Phospho-S6): down regulation
- oxidative phosphorylation / mitochondrial membrane potential by TMRE staining [1]: impairs oxidative phosphorylation
- activity against astrocytes (astrocytes): no to minimal effect; also recorded: no activity; also recorded: uniquely resistant
- activity against MEF (MEF): no to minimal effect; also recorded: no activity
- association with OxyPhos complex proteins (pull-down) [3]: excludes
- sensitivity of DAOY cells [4]: resistance
